Experimental data as given in PubChem BioAssay (NCI).
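Cells were grown in 96-well plates and exposed to each compound for 48 hours at five concentrations; endpoints were interpolated linearly between bracketing concentrations, or set to the highest concentration if not reached. TGI denotes the concentration required for complete inhibition of growth.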

Legend:
Assay in all cases: NCI tumour cell line growth inhibition, 48 h
[1] = system: ACHN renal
[2] = system: U251 CNS
[3] = system: SNB-75 CNS
[4] = system: SK-MEL-28 melanoma
[5] = system: T-47D breast
[6] = system: HCT-116 colon
[7] = system: HOP-62 NSCLC
[8] = system: 786-0 renal
[9] = system: DU-145 prostate
[10] = system: NCI/ADR-RES ovarian
[11] = system: UACC-257 melanoma
[12] = system: HCT-15 colon
[13] = system: SK-MEL-2 melanoma
[14] = system: MDA-MB-231 breast
[15] = system: TK-10 renal
[16] = system: BT-549 breast
[17] = system: SF-295 CNS
[18] = system: OVCAR-5 ovarian
[19] = system: HT29 colon
[20] = system: PC-3 prostate
[21] = system: OVCAR-8 ovarian
[22] = system: SN12C renal
[23] = system: MDA-MB-435
[24] = system: K-562 leukemia
[25] = system: KM12 colon
[26] = system: COLO 205 colon
[27] = system: M14 melanoma
[28] = system: SW-620 colon
[29] = system: NCI-H23 lung
[30] = system: HOP-92 NSCLC
[31] = system: MCF7 breast
[32] = system: OVCAR-4 ovarian
[33] = system: LOX IMVI melanoma
[34] = system: SK-OV-3 ovarian
[35] = system: SNB-19 CNS
[36] = system: RPMI-8226 leukemia
[37] = system: A549 NSCLC
[38] = system: A498 renal
[39] = system: RXF 393 renal
[40] = system: OVCAR-3 ovarian
[41] = system: CAKI-1 renal
[42] = system: CCRF-CEM leukemia
[43] = system: MDA-N
[44] = system: HL-60(TB) leukemia
[45] = system: IGROV1 ovarian
[46] = system: SF-539 CNS
[47] = system: EKVX NSCLC
[48] = system: NCI-H226 lung
[49] = system: MOLT-4 leukemia
[50] = system: SR leukemia
[51] = system: SK-MEL-5 melanoma
[52] = system: UO-31 renal
[53] = system: NCI-H522 lung
[54] = system: NCI-H460 lung
[55] = system: HS 578T breast
[56] = system: HCC-2998 colon
[57] = system: MALME-3M melanoma
[58] = system: UACC-62 melanoma
[59] = system: SF-268 CNS

CCOc1cc(NC(C)=O)ccc1C(=O)NN1C(=O)/C(=C/c2ccc(Cl)cc2)N=C1c1ccccc1
TGI [1]: > 100 µM
TGI [2]: > 100 µM
TGI [3]: > 100 µM
TGI [4]: > 100 µM
TGI [5]: 77.1 µM
TGI [6]: > 100 µM
TGI [7]: > 100 µM
TGI [8]: > 100 µM
TGI [9]: > 100 µM
TGI [10]: > 100 µM
TGI [11]: > 100 µM
TGI [12]: > 100 µM
TGI [13]: > 100 µM
TGI [14]: > 100 µM
TGI [15]: > 100 µM
TGI [16]: > 100 µM
TGI [17]: > 100 µM
TGI [18]: > 100 µM
TGI [19]: > 100 µM
TGI [20]: > 100 µM
TGI [21]: > 100 µM
TGI [22]: > 100 µM
TGI [23]: > 100 µM
TGI [24]: > 100 µM
TGI [25]: > 100 µM
TGI [26]: > 100 µM
TGI [27]: > 100 µM
TGI [28]: > 100 µM
TGI [29]: > 100 µM
TGI [30]: > 100 µM
TGI [31]: > 100 µM
TGI [32]: > 100 µM
TGI [33]: > 100 µM
TGI [34]: > 100 µM
TGI [35]: > 100 µM
TGI [36]: > 100 µM
TGI [37]: > 100 µM
TGI [38]: 81.4 µM
TGI [39]: > 100 µM
TGI [40]: > 100 µM
TGI [41]: > 100 µM
TGI [42]: 93 µM
TGI [43]: > 100 µM
TGI [44]: 89.6 µM
TGI [45]: > 100 µM
TGI [46]: > 100 µM
TGI [47]: > 100 µM
TGI [48]: > 100 µM
TGI [49]: > 100 µM
TGI [50]: > 100 µM
TGI [51]: 81.3 µM
TGI [52]: > 100 µM

Nc1nc(NCc2ccccc2)cc(NCc2ccccc2)n1
TGI [1]: 28.1 µM
TGI [2]: 71.2 µM
TGI [53]: 19.2 µM
TGI [3]: 13.1 µM
TGI [54]: 32.5 µM
TGI [4]: > 100 µM
TGI [5]: 25.9 µM
TGI [6]: 21.2 µM
TGI [7]: 41.7 µM
TGI [8]: 22.5 µM
TGI [10]: 15.3 µM
TGI [11]: 21.6 µM
TGI [12]: 18.3 µM
TGI [55]: 13.4 µM
TGI [13]: 31.2 µM
TGI [14]: 22.4 µM
TGI [15]: 22.3 µM
TGI [56]: 24.6 µM
TGI [16]: 23.5 µM
TGI [17]: 69 µM
TGI [18]: 50.4 µM
TGI [19]: 11.9 µM
TGI [20]: 16.8 µM
TGI [21]: 17.3 µM
TGI [22]: 32.4 µM
TGI [23]: 18.9 µM
TGI [24]: > 100 µM
TGI [25]: 27.9 µM
TGI [26]: 27.3 µM
TGI [27]: 39.5 µM
TGI [28]: > 100 µM
TGI [29]: 20 µM
TGI [30]: 21.5 µM
TGI [31]: 6.36 µM
TGI [57]: 21.7 µM
TGI [58]: 16.5 µM
TGI [32]: 28.3 µM
TGI [33]: 45 µM
TGI [34]: 33.7 µM
TGI [59]: 19.3 µM
TGI [35]: 31 µM
TGI [36]: 24.6 µM
TGI [37]: 92 µM
TGI [38]: 14.5 µM
TGI [39]: 26.6 µM
TGI [40]: 20.2 µM
TGI [41]: 9.74 µM
TGI [42]: > 100 µM
TGI [43]: 5.97 µM
TGI [44]: > 100 µM
TGI [45]: 23.9 µM
TGI [46]: 18.3 µM
TGI [47]: 41 µM
TGI [48]: 27.5 µM
TGI [49]: > 100 µM
TGI [50]: > 100 µM
TGI [51]: 19.7 µM
TGI [52]: 21 µM

COC(=O)C#CC1(O)C=CC(=O)C=C1
TGI [1]: 10.1 µM
TGI [53]: 0.552 µM
TGI [3]: 18.1 µM
TGI [54]: 13.9 µM
TGI [4]: 1.67 µM
TGI [5]: 3.74 µM
TGI [7]: 15.7 µM
TGI [8]: 1.82 µM
TGI [9]: 16.7 µM
TGI [10]: > 100 µM
TGI [11]: 3.64 µM
TGI [12]: 4.32 µM
TGI [55]: 16.1 µM
TGI [13]: 7.64 µM
TGI [15]: 5.22 µM
TGI [56]: 8.15 µM
TGI [16]: 3.42 µM
TGI [17]: > 41.8 µM
TGI [18]: 10.4 µM
TGI [19]: 13.5 µM
TGI [20]: 5.76 µM
TGI [21]: 15.4 µM
TGI [23]: 1.28 µM
TGI [25]: 2.3 µM
TGI [27]: 12.1 µM
TGI [29]: 6.28 µM
TGI [30]: 2.29 µM
TGI [57]: 4.48 µM
TGI [58]: 2.64 µM
TGI [32]: 17 µM
TGI [33]: 1.9 µM
TGI [34]: > 100 µM
TGI [59]: 3.18 µM
TGI [35]: 17.9 µM
TGI [36]: 2.67 µM
TGI [37]: > 48.1 µM
TGI [38]: > 100 µM
TGI [39]: 3.76 µM
TGI [40]: 1.6 µM
TGI [42]: 0.758 µM
TGI [43]: > 34.5 µM
TGI [45]: 2.85 µM
TGI [46]: > 35.1 µM
TGI [47]: 24.5 µM
TGI [48]: 20.8 µM
TGI [49]: 0.0794 µM
TGI [50]: 15.2 µM
TGI [52]: 10.6 µM

N#CC(C#N)=CNC(=S)Nc1ccc(S(=O)(=O)Nc2nccs2)cc1
TGI [1]: > 100 µM
TGI [2]: > 100 µM
TGI [3]: > 100 µM
TGI [54]: > 100 µM
TGI [4]: > 100 µM
TGI [5]: > 100 µM
TGI [6]: > 100 µM
TGI [7]: > 100 µM
TGI [8]: > 100 µM
TGI [9]: > 100 µM
TGI [10]: > 100 µM
TGI [11]: > 100 µM
TGI [12]: > 100 µM
TGI [13]: > 100 µM
TGI [14]: > 100 µM
TGI [15]: > 100 µM
TGI [56]: > 100 µM
TGI [16]: > 100 µM
TGI [17]: > 100 µM
TGI [18]: > 100 µM
TGI [19]: > 100 µM
TGI [21]: > 100 µM
TGI [22]: > 100 µM
TGI [23]: > 100 µM
TGI [25]: > 100 µM
TGI [26]: > 100 µM
TGI [27]: > 100 µM
TGI [28]: > 100 µM
TGI [29]: > 100 µM
TGI [30]: > 100 µM
TGI [31]: > 100 µM
TGI [58]: > 100 µM
TGI [32]: > 100 µM
TGI [33]: > 100 µM
TGI [34]: > 100 µM
TGI [59]: > 100 µM
TGI [35]: > 100 µM
TGI [37]: > 100 µM
TGI [38]: > 100 µM
TGI [39]: > 100 µM
TGI [40]: > 100 µM
TGI [41]: > 100 µM
TGI [43]: > 100 µM
TGI [44]: > 100 µM
TGI [45]: > 100 µM
TGI [46]: > 100 µM
TGI [47]: > 100 µM
TGI [48]: > 100 µM
TGI [49]: > 100 µM
TGI [51]: > 100 µM
TGI [52]: > 100 µM
